Reference: paper PMC8422652, “Neuromedin U induces an invasive phenotype in CRC cells expressing the NMUR2 receptor” (Journal of Experimental & Clinical Cancer Research : CR, 2021)
Like-named read-outs stand apart in the source and are kept apart here. Square brackets hold non-standard residues; d marks the D form. Ends that are not written are not given here. Peptide text beside a SMILES is read from it. Dmt = Cc1cc(O)cc(C)c1C[C@H](N)C(=O)O; Tic = O=C(O)[C@@H]1Cc2ccccc2CN1

Assays:
[1] = system: NMUR1 and NMUR2 expression in CRC cells; assay: 5-aza-CdR treatment for NMUR1 and NMUR2 expression analysis (real-time PCR); assay type: cell-based, human; conditions: 50 µM for 96 h (4 days), n ≥ 4
Description: Total RNA was isolated with the ReliaPrep™ RNA Cell Miniprep System (Promega, Madison, WI, USA). The quality control of isolated RNA was performed using the 2100 Bioanalyser (Agilent Technologies, Palo Alto, CA, USA) according to the manufacturer’s instructions. 1 µg of the isolated total RNA (RIN ≥ 8) was reverse transcribed using the High Capacity cDNA Reverse Transcription Kit (Applied Biosystems, CA, USA) according to the manufacturer’s instructions. Real time PCR for human NMU, NMUR1, NMUR2, NTSR1, GHSR1b, GAPDH and β-actin was performed using FastStart Essential DNA Probes Master or FastStart Essential DNA Green Master (Roche, Basel, Switzerland). Amplification was performed on a Roche LightCycler 96. GADPH and/or β-actin mRNA transcripts were used as internal control genes. The amount of target in the various samples was calculated using the 2^−ΔCt relative quantification method with DataAssist v.3.01.
Cells were seeded on 6-well plates (Corning, NY, USA). After cells attachment (6 h), DNA methyltransferase inhibitor, 5-aza-2’-deoxycytidine (5-aza-CdR) (Sigma-Aldrich) was added at final concentration of 50 µM. Medium containing 5-aza-CdR was refreshed every 24 h. After 96 h, total RNA was isolated and analysed. The real-time PCR products were analysed on a 2 % agarose gel with ethidium bromide (Sigma-Aldrich) and visualized.

[2] = Half-life in human plasma (plasma stability); assay type: in vitro ADME
Source text: NMURs agonists, which are NMU-8 analogues, were synthesized with a HPLC purity > 98 %, as described in literature. […] All peptides were used as solutions in water. Peptide sequences and stability data are available in the Table S1 (Additional File 1).

HT29 cells = assay: Ca2+ mobilization assay (fluo-4) in HT29 cells; assay type: cell-based, human
Description: (§1) Cells grown on poly-lysine-coated 48-well plates (Corning) for 24 h were stained for 15 min at 37 °C with Hoechst 33342 (Invitrogen). PBS rinsed cells were loaded with Fluo-4 AM (5 µM; Invitrogen) for 45–60 min at 37 °C in the presence of 0.5 % of pluronic-127 in the incubation medium (growth medium without FBS and PS, supplemented with 0.1 % BSA). Cells were rinsed with warm PBS and bathed in a final volume of 300 µl of incubation medium. Images were acquired using AxioVert fluorescence inverted microscope (Zeiss, Germany) with the use of 10 x dry objective (NA 0.3). First, an image of Hoechst 33342-stained nuclei was acquired. Next, a time-lapse image sequence in green channel (Fluo-4) was recorded with exposure time of 500 ms in the same field of view. […] For analysis of CRC cells we chose minimal concertation that induce significant fluorescence change. NMU-9 (1 µM) and NMUR2 agonist (200 nM ~ 5 times the EC50 determined in literature). […] Quantification of the effects is described in Additional Files 1 and 3. […]
(§2) Quantification of the calcium mobilisation were performed with the use of FIJI image processing package***. […] Fluorescence intensity change over time was measured in each ROI in corresponding movie sequence of Fluo-4 stained cells. […] Such background-corrected values of fluorescence intensity were used for further calculations. […]

[3] = system: HEK293 R2_HA cell line overexpressing NMUR2; assay: Ca2+ mobilization assay (fluo-4) in HEK293 R2_HA cells; assay type: cell-based, human
Description: as §1, §2

ERK1/2 in Caco-2 cells = assay: ERK1/2 activation analysis (immunoblot) in Caco-2 cells; assay type: cell-based, human; conditions: SBL-NMU-17 250 nM, immunoblot pERK1/2 normalised to ERK1/2 and α-tubulin, n = 5 (NMU-9 n = 1)
Description: (§3) CRC cells were lysed with RIPA buffer (100 mM TRIS-HCl, pH 7.5, 300 mM NaCl, 0.2 % SDS with 1 % IGEPAL CA-630 and the Halt™ Protease Inhibitor Cocktail (Thermo Fisher Scientific)) with subsequent centrifugation (18,000 x g, 4 °C, 20 min). Total protein concentration in lysate was quantified by BCA method (Pierce BCA Protein Assay; Thermo Fisher Scientific). Samples were loaded and separated by SDS-PAGE (Mini-PROTEAN TGX Stain-Free Gels; Bio-Rad Laboratories, CA, USA) and transferred onto nitrocellulose membranes (Bio-Rad Laboratories). NMU protein was detected with rabbit anti-NMU antibody (Genetex, CA, USA), for ERK1/2 kinases analysis mouse anti-ERK1/2 (Santa Cruz Biotechnology, USA) and rabbit anti-pERK1/2 antibodies (Invitrogen) were used. In EVs (extracellular vesicles) purity analysis we used rabbit antibodies anti-GM130, anti-annexin V and anti-flotilin-1 (Cell Signaling Technologies, Danvers, MA, USA). Proteins used as loading controls were detected by mouse anti-β-actin, mouse anti-α-tubulin or rabbit anti-GAPDH antibody (Abcam, Cambridge, GB). We used secondary HRP-conjugated goat anti-mouse (Santa Cruz Biotechnology) or anti-rabbit antibodies (Invitrogen). The signal was detected by chemiluminescence (Thermo Fisher Scientific) with Kodak BioMax Light Film from Eastman Kodak (NY, USA). […]

[4] = system: ERK1/2 in HEK293 R2_HA cells; assay: ERK1/2 activation analysis (immunoblot) in HEK293 R2_HA cells; assay type: cell-based, human; conditions: HEK293 R2_HA clone, n = 1
Description: as §3, with “In EVs (extracellular vesicles) purity analysis we used rabbit antibodies anti-GM130, anti-annexin V and anti-flotilin-1 (Cell Signaling Technologies, Danvers, MA, USA).” left out, “We used secondary HRP-conjugated goat anti-mouse (Santa Cruz Biotechnology) or anti-rabbit antibodies (Invitrogen).” left out
Fig. S1 HEK293 R2_HA clones with exogenous NMUR2 overexpression. (A) NMUR2 mRNA levels were analysed in HT29 with endogenous expression of NMUR2 and compared to those in HEK293 R2_HA clones with exogenous expression of NMUR2 (**p ≤ 0,01; n ≥ 3). […] The changes in fluorescence were detected and analysed as described in the Methods section. […]

NMUR2 = NMUR2 agonist, cited from earlier work
Source text: (§4) NMURs agonists, which are NMU-8 analogues, were synthesized with a HPLC purity > 98 %, as described in literature.

HCT116 cells = assay: Ca2+ mobilization assay (fluo-4) in HCT116 cells; assay type: cell-based, human; conditions: 1 µM NMU-9, 40 nM NMUR1 agonist, percentage of cells above threshold, n = 5
Description: as §1, with “change.” for “change. NMU-9 (1 µM) and NMUR2 agonist (200 nM ~ 5 times the EC50 determined in literature).”
Quantification of the calcium mobilisation were performed with the use of FIJI image processing package***. […] Fluorescence intensity change over time was measured in each ROI in corresponding movie sequence of Fluo-4 stained cells. To acquire the change of background fluorescence over time in each movie sequence, additional ROIs were created by the analyst manually in the sites devoid of cells. […]

[5] = cited from earlier work
Source text: Supplement 13046_2021_2073_MOESM1_ESM.docx, table 1: Table S1. […] NMURs agonists, which are NMU-8 analogues, were synthesized with a HPLC purity > 98 %, as described in literature.

NMUR1 = NMUR1 agonist, cited from earlier work
Source text: as §4

[6] = species not given; cited from earlier work
Source text: Physiologically, NMU has been predominantly found in the central nervous system and in the periphery. In the gastrointestinal tract, locally administered NMU leads to smooth muscle contraction, regulating intestinal motility and regional blood flow, but epithelial cells are not the source of the peptide in the gastrointestinal tract under normal conditions. Human neuromedin U synthesis is tightly regulated at the genetic, epigenetic, transcriptional and post-transcriptional levels, regulating access to cellular microenvironments. Peptide precursors can be produced from three ...

Molecule: Nc1ncn([C@H]2C[C@H](O)[C@@H](CO)O2)c(=O)n1 [5-aza-CdR, 5-aza-2’-deoxycytidine]
- NMUR1 and NMUR2 expression after DNA demethylation [1]: regulated by promoter methylation

Molecule: CC(C)C[C@H](NC(=O)[C@H](Cc1ccccc1)NC(=O)[C@@H](N)Cc1ccc(O)cc1)C(=O)N[C@@H](Cc1ccccc1)C(=O)N[C@@H](CCCNC(=N)N)C(=O)N1Cc2ccccc2C[C@H]1C(=O)N[C@@H](CCCNC(=N)N)C(=O)N[C@@H](CC(N)=O)C(N)=O [SBL-NMU-17] (H-YFLFR[Tic]RN-NH2)
- Metabolite observed in plasma stability studies ([2]; human plasma, both peptides yielded a 7-amino acid long metabolite): only Tyr was lost
- Minimal concentration that induces significant fluorescence change (Ca2+ mobilisation) (HT29 cells; CRC cells, tested 150, 200, 300 nM): 200 nM
- Change in fluo-4 fluorescence intensity caused by Ca2+ mobilisation (HT29 cells; HT29 cells, 1 µM NMU-9, 200 nM NMUR2 agonist, percentage of cells above threshold, n = 5): significantly responded
- Minimal effective concentration (Ca2+ influx) ([3]; HEK293 R2_HA cells loaded with fluo-4): 150 nM
- Calcium mobilisation (fluo-4) ([3]; HEK293 R2_HA, NMU-9 0.7 µM, SBL-NMU-17 150 nM, n = 3): significant calcium mobilisation
- Phosphorylation (activation) of ERK1/2 kinases (ERK1/2 in Caco-2 cells): induced ERK1/2 kinase activation
- ERK1/2 phosphorylation [4]: observed ERK1/2 phosphorylation
- EC50 (NMUR2; IP3 pathway activation data): 45.5 nM
- IC50 (NMUR2; competitive binding assay): 13 nM

Molecule: CC(=O)N[C@@H](Cc1ccc(O)cc1)C(=O)N[C@@H](Cc1ccccc1)C(=O)N[C@@H](CC(C)C)C(=O)N[C@@H](Cc1c(C)cc(O)cc1C)C(=O)N[C@@H](CCCNC(=N)N)C(=O)N1CCC[C@H]1C(=O)N[C@@H](CCCNC(=N)N)C(=O)N[C@@H](CC(N)=O)C(N)=O [SBL-NMU-21] (Ac-YFL[Dmt]RPRN-NH2)
- Change in fluo-4 fluorescence intensity caused by Ca2+ mobilisation (HCT116 cells): did not detect statistically significant changes
- Half-life in human plasma (t1/2) [5]: 4.225 h
- EC50 (NMUR1; calculated based on the IP3 pathway activation data): 7.7 nM
- IC50 (NMUR1; calculated based on the competitive binding assay): 0.36 nM

Molecule: GYFLFRPRN-NH2 [NMU-9]
- Metabolite observed in plasma stability studies [2]: the peptide devoid of the Gly-Tyr segment was quickly observed
- Half-life in human plasma (t1/2) ([2]; human): 4.60 ± 0.4 min

Molecule: NMU: Native neuromedin U peptide, secretory neuropeptide with amidated C-terminal pentapeptide (FRVDEEFQSPFASQSRGYFLFRPRN-NH2; UniProt P48645 142-166, looked up)
- estimated half-life in plasma [6]: less than 5 min
